Numbering of substitutions follows the chain as printed.
Experiments:
[1] = target: T1, AT1 F117A mutant receptor (Rattus norvegicus, UniProt P25095, F117A); test: competition binding, F117A mutant; details: for Kd ratio relative to WT (in parentheses): F117A / WT; for Kd: F117A, COS1 membranes, read-out: Binding affinity (Kd)
T1 construct: expressed in transfected cells; host or cells: COS1
T1 sequence (P25095 1-359 F117A): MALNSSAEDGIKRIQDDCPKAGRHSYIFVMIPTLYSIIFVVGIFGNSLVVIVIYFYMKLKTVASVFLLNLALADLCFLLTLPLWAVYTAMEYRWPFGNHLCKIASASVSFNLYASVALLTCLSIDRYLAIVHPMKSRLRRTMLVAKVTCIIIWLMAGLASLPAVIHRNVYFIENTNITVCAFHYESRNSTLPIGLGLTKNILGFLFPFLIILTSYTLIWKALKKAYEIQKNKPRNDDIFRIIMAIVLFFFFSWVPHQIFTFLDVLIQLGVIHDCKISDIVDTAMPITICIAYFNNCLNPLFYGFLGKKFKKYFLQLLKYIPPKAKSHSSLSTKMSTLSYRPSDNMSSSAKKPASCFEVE
Procedure: (§1) The Kd and Bmax values of receptor binding were determined by ^125I-[Sar^1, Ile^8] […] Membranes expressing the WT or mutant AT1 receptors were incubated with 100 pM ^125I-[Sar^1, Ile^8] […] The binding reaction was terminated by filtering the incubation mixture through Whatman GF/C glass filters, and the residues were extensively washed further with binding buffer. The bound ligand fraction was determined from the counts per minute (cpm) remaining on the membrane. Binding kinetics values were determined as previously described.

[2] = target: T2, AT1 V116A mutant receptor (Rattus norvegicus, UniProt P25095, V116A); test: competition binding, V116A mutant; details: for Kd ratio relative to WT (in parentheses): V116A / WT; for Kd: V116A, COS1 membranes, read-out: Binding affinity (Kd)
T2 construct: expressed in transfected cells; host or cells: COS1
T2 sequence (P25095 1-359 V116A): T1 sequence (P25095 1-359 F117A) with V116A, A117F
Procedure: as §1

[3] = target: T3, AT1 C76A/C289A mutant receptor (Rattus norvegicus, UniProt P25095, C289A/C76A); test: competition binding, C76A/C289A mutant; details: for Kd ratio relative to WT (in parentheses): C76A/C289A / WT; for Kd: C76A/C289A, COS1 membranes, read-out: Binding affinity (Kd)
T3 construct: expressed in transfected cells; host or cells: COS1
T3 sequence (P25095 1-359 C76A/C289A): T1 sequence (P25095 1-359 F117A) with C76A, A117F, C289A
Procedure: as §1

[4] = target: T4, AT1 A106G mutant receptor (Rattus norvegicus, UniProt P25095, A106G); test: competition binding, A106G mutant; details: for Kd ratio relative to WT (in parentheses): A106G / WT; for Kd: A106G, COS1 membranes, read-out: Binding affinity (Kd)
T4 construct: expressed in transfected cells; host or cells: COS1
T4 sequence (P25095 1-359 A106G): T1 sequence (P25095 1-359 F117A) with A106G, A117F
Procedure: as §1

[5] = target: T5, AT1 S107A mutant receptor (Rattus norvegicus, UniProt P25095, S107A); test: competition binding, S107A mutant; details: for Kd ratio relative to WT (in parentheses): S107A / WT; for Kd: S107A, COS1 membranes, read-out: Binding affinity (Kd)
T5 construct: expressed in transfected cells; host or cells: COS1
T5 sequence (P25095 1-359 S107A): T1 sequence (P25095 1-359 F117A) with S107A, A117F
Procedure: as §1

[6] = target: T6, AT1 C76A/S109C/C289A mutant receptor (Rattus norvegicus, UniProt P25095, C289A/C76A/S109C); test: competition binding, C76A/S109C/C289A mutant; details: for Kd ratio relative to WT (in parentheses): C76A/S109C/C289A / WT; for Kd: C76A/S109C/C289A, COS1 membranes, read-out: Binding affinity (Kd)
T6 construct: expressed in transfected cells; host or cells: COS1
T6 sequence (P25095 1-359 C76A/S109C/C289A): T1 sequence (P25095 1-359 F117A) with C76A, S109C, A117F, C289A
Procedure: as §1

CCCc1nc(C(C)(C)O)c(C(N)=O)n1Cc1ccc(-c2cc(Cc3ccc(O)cc3)ccc2-c2nnn[nH]2)cc1 [R794847]
Kd ratio relative to WT (in parentheses) [1]: 1.1 fold | Kd [1]: 54 ± 19 nM | Kd ratio relative to WT (in parentheses) [2]: 45 fold | Kd [2]: 2150 ± 802 nM | Kd ratio relative to WT (in parentheses) [3]: 1.5 fold | Kd [3]: 73 ± 20 nM | Kd ratio relative to WT (in parentheses) [4]: 17 fold | Kd [4]: 792 ± 202 nM | Kd ratio relative to WT (in parentheses) [5]: 1.2 fold | Kd [5]: 59 ± 27 nM | Kd ratio relative to WT (in parentheses) [6]: 2.0 fold | Kd [6]: 96 ± 18 nM

CCCc1nc(C(C)(C)O)c(C(N)=O)n1Cc1ccc(-c2ccccc2-c2nnn[nH]2)cc1 [R239470]
Kd ratio relative to WT (in parentheses) [1]: 1.9 fold | Kd [1]: 1.5 ± 0.04 nM | Kd ratio relative to WT (in parentheses) [2]: 3.2 fold | Kd [2]: 2.6 ± 0.7 nM | Kd ratio relative to WT (in parentheses) [3]: 3.0 fold | Kd [3]: 2.4 ± 0.5 nM | Kd ratio relative to WT (in parentheses) [4]: 6.0 fold | Kd [4]: 4.8 ± 1.5 nM | Kd ratio relative to WT (in parentheses) [5]: 1.6 fold | Kd [5]: 1.3 ± 0.2 nM | Kd ratio relative to WT (in parentheses) [6]: 14 fold | Kd [6]: 11 ± 3 nM

CCCc1nc(C(C)(C)O)c(C(=O)O)n1Cc1ccc(-c2ccccc2-c2nnn[nH]2)cc1 [Olmesartan, olmesartan, reference compound]
Kd ratio relative to WT (in parentheses) [1]: 1.1 fold | Kd [1]: 2.5 ± 1.4 nM | Kd ratio relative to WT (in parentheses) [2]: 3.8 fold | Kd [2]: 8.8 ± 1.2 nM | Kd ratio relative to WT (in parentheses) [3]: 2.5 fold | Kd [3]: 5.7 ± 1.6 nM | Kd ratio relative to WT (in parentheses) [4]: 2.6 fold | Kd [4]: 6.1 ± 2.2 nM | Kd ratio relative to WT (in parentheses) [5]: 1.1 fold | Kd [5]: 2.5 ± 0.5 nM | Kd ratio relative to WT (in parentheses) [6]: 13 fold | Kd [6]: 29 ± 5 nM
